# “And” between values parts separate entries of the source, which are not always exact repeats. Identical values can stand only once. Like-named read-outs stand apart in the source and are kept apart here.
# Columns and labels:
# P. gingivalis [1] = assay: CPC and delmopinol combination (chequerboard assay), FICi/FBCi; format: cell-based, Porphyromonas gingivalis; settings: CPC + delmopinol, Standard broth
# Description: (§1) 190 μl of normal broth (standard assays) or broth A was added to wells of a 96 well plate. […] 5 μl of each dilution of delmopinol was added to the appropriate wells of the 96 wells plate. The contents of each well were mixed thoroughly and then 100 μl volume was discarded.
# (§2) Plates were then incubated as described above. […] Following incubation the plates were examined and growth/no growth recorded for every well sample (used for FBC determination).
# (§3) FBCi were calculated in the same manner but using MBC data.
# (§4) The FICi and FBCi were interpreted using the same parameters as set out above.
# Prv. nigrescence [2] = assay: as above; format: cell-based, Prevotella nigrescence
# Description: as §1, §2, §3, §4
# C. albicans [3] = assay: as above; format: cell-based, Candida albicans; settings: CPC + delmopinol
# Description: as §1, §2, §3, §4
# C. albicans [4] = assay: MIC/MBC of CPC or delmopinol alone; format: cell-based; settings: Candida albicans, compound alone
# Description: (§5) The final mixture was then sterilized by filtration using a […] PES filter (Nalgene, 169-0045).
# (§6) Bacterial preparations were prepared using freshly grown cultures on solid media. Several loop-fulls of culture were transferred to 10-20 ml of the appropriate broth and vortexed gently until a fine suspension was produced. The initial OD600 nm of the cell suspensions was measured and adjusted to 0.2 to give a colony count of 1×10^8 cfu/ml. Final inocula were prepared by diluting the adjusted cell suspensions in appropriate broth as detailed below:
# (§7) The broths were added to wells in columns 1, 11 (negative control, broth only) and 12 (positive control).
# (§8) 100 μl of normal broth (standard assay) or broth A was added to wells in columns 2-10.
# (§9) After mixing in column 10, 100 μl was discarded. 5 μl of the appropriate solvent was added to wells in column 12, mixed and 100 μl discarded.
# (§10) Finally, 100 μl of inoculum (prepared in either normal broth or 2× broth A) was added to the wells in columns 1-10 and 12 and the plates were incubated as described above.
# E. coli = assay: MIC/MBC of CPC or delmopinol alone; format: cell-based; settings: Escherichia coli, compound alone
# Description: as §5, §6, §7, §8, §9, §10
# P. gingivalis [5] = assay: MIC/MBC of CPC or delmopinol alone; format: cell-based; settings: Porphyromonas gingivalis
# Description: as §5, §6, §7, §8, §9, §10
# Prv. nigrescence [6] = assay: MIC/MBC of CPC or delmopinol alone; format: cell-based; settings: Prevotella, compound alone
# Description: as §5, §6, §7, §8, §9, §10
# S. aureus = assay: MIC/MBC of CPC or delmopinol alone; format: cell-based; settings: Staphylococcus aureus
# Description: as §5, §6, §7, §8, §9, §10
# E. faecalis = assay: MIC/MBC of CPC or delmopinol alone; format: cell-based, Entercoccus faecalis; settings: Enterococcus faecalis, compound alone
# Description: as §5, §6, §7, §8, §9, §10
# [7] = Decapinol base (Broth A), no delmopinol or sodium benzoate present, read-out: Activity alone Decapinol base MBC
# [8] = Decapinol base (Broth A), no delmopinol or sodium benzoate present, read-out: Activity alone Decapinol base MIC
# [9] = Standard broth, read-out: Activity alone Standard MBC
# [10] = Standard broth, read-out: Activity alone Standard MIC
structure (smiles),measurement,setting,value
"CCCCCCCCCCCCCCCC[n+]1ccccc1 [CPC, cetylpyridinium chloride]",Combination with delmopinol (FIC) Standard FICi,P. gingivalis [1],0.62p
same,Combination with delmopinol (FIC) Decapinol base FBCi,Prv. nigrescence [2],0.53p
same,Combination with delmopinol (FIC) Decapinol base FICi,Prv. nigrescence [2],0.5 s
same,Combination with delmopinol (FIC) Standard FBCi,Prv. nigrescence [2],0.79
same,Combination with delmopinol (FIC) Decapinol base FBCi,C. albicans [3]; Decapinol base (Broth A),0.65p
same,Combination with delmopinol (FIC) Decapinol base FICi,C. albicans [3]; Decapinol base (Broth A),0.99
same,Combination with delmopinol (FIC) Standard FBCi,C. albicans [3]; Standard broth,0.68p
"CCCC(CCC)CCCC1COCCN1CCO (centres unmarked) [Delmopinol, 3-(4-propylheptyl)-4-(2-hydroxyethyl)morpholine]",MBC,C. albicans [4]; [7],120 µg/mL and 460 µM
same,MIC,C. albicans [4]; [8],120 µg/mL and 460 µM
same,MBC,C. albicans [4]; [9],500 µg/mL and 1840 µM
same,MIC,C. albicans [4]; [10],500 µg/mL and 1840 µM
same,MBC,E. coli; [7],250 µg/mL and 920 µM
same,MIC,E. coli; [8],250 µg/mL and 920 µM
same,MBC,E. coli; [9],250 µg/mL and 920 µM
same,MIC,E. coli; [10],250 µg/mL and 920 µM
same,MBC,P. gingivalis [5]; read-out: Activity alone Decapinol base MBC,31.2 µg/mL
same,MIC,P. gingivalis [5]; read-out: Activity alone Decapinol base MIC,31.2 µg/mL
same,MBC,P. gingivalis [5]; read-out: Activity alone Standard MBC,31.2 µg/mL
same,MBC,"P. gingivalis [5]; P. gingivalis, compound alone, Decapinol base (Broth A), no delmopinol or sodium benzoate present, read-out: Activity alone Decapinol base MBC",120 µM
same,MIC,"P. gingivalis [5]; P. gingivalis, compound alone, Decapinol base (Broth A), no delmopinol or sodium benzoate present, read-out: Activity alone Decapinol base MIC",1.2 µM
same,MBC,"P. gingivalis [5]; P. gingivalis, compound alone, Standard broth, read-out: Activity alone Standard MBC",120 µM
same,MIC,"P. gingivalis [5]; P. gingivalis, compound alone, Standard broth, read-out: Activity alone Standard MIC",1.95 µg/mL
same,MBC,Prv. nigrescence [6]; [7],125 µg/mL and 460 µM
same,MIC,Prv. nigrescence [6]; [8],31.2 µg/mL and 120 µM
same,MBC,Prv. nigrescence [6]; [9],62.5 µg/mL and 230 µM
same,MIC,Prv. nigrescence [6]; [10],62.5 µg/mL and 230 µM
same,MIC,S. aureus; read-out: Activity alone Standard MIC,125 µg/mL
same,MBC,"S. aureus; S. aureus, compound alone, Decapinol base (Broth A), no delmopinol or sodium benzoate present, read-out: Activity alone Decapinol base MBC",250 µg/mL and 920 µM
same,MIC,"S. aureus; S. aureus, compound alone, Decapinol base (Broth A), no delmopinol or sodium benzoate present, read-out: Activity alone Decapinol base MIC",250 µg/mL and 920 µM
same,MBC,"S. aureus; S. aureus, compound alone, Standard broth, read-out: Activity alone Standard MBC",250 µg/mL and 920 µM
same,MIC,"S. aureus; S. aureus, compound alone, Standard broth, read-out: Activity alone Standard MIC",460 µM
same,MBC,E. faecalis; [7],250 µg/mL and 920 µM
same,MIC,E. faecalis; [8],250 µg/mL and 920 µM
same,MBC,E. faecalis; [9],250 µg/mL and 920 µM
same,MIC,E. faecalis; [10],250 µg/mL and 920 µM

# Source: patent US20150010479A1, “TREATMENT OF MICROBIAL INFECTIONS” (SINCLAIR PHARMACEUTICALS LIMITED, priority 2012, published 2015)
